Here are results for four compounds from patent US12655116B2, “Substituted isophthalic acid diamides” (Bayer Aktiengesellschaft, priority 2020, dated 2026).

The subject of assay [1] is ABUTH. Briefly: Post-emergence herbicidal action against ABUTH. The class given is in vivo, Abutilon theophrasti. Particulars: visual assessment about 3 weeks after treatment vs untreated controls. The essentials: (§1)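 Foliar application at one-leaf stage of formulated test compounds, aqueous spray at 600–800 l/ha with 0.2% wetting agent. Greenhouse, optimal conditions, ~3 weeks; damage scored visually in % relative to untreated plants.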

In assay [2] the test system is ALOMY. Briefly: Pre-emergence herbicidal action against ALOMY. Type of assay: in vivo, Alopecurus myosuroides. Particulars: pre-emergence. The essentials:
(§2)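 Greenhouse pots of sandy loam held seeds covered with soil, onto which the compound was applied before emergence. An aqueous suspension or emulsion of WP or EC was used at 600 to 800 l/ha with 0.2% wetting agent. Percent damage was judged visually at 3 weeks.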

Assay [3] has as its system ECHCG. Briefly: Post-emergence herbicidal action against ECHCG. Type of assay: in vivo, Echinochloa crus-galli. The conditions noted are these: dosage 20 g/ha. The essentials: as §1
In assay [4] the test system is VIOTR. Briefly: Pre-emergence herbicidal action against VIOTR. The class given is in vivo, Viola tricolor. The gist of the method:
as §2

Assay [5] relates to MATIN. Briefly: Pre-emergence herbicidal action against MATIN. Type of assay: in vivo, Matricaria inodora. The gist of the method: as §2
In assay [6] the test system is ABUTH. Briefly: Pre-emergence herbicidal action against ABUTH. Type of assay: in vivo, Abutilon theophrasti. Particulars: for Pre-emergence action against ABUTH (herbicidal activity): 80 g/ha, scored visually after 3 weeks vs untreated controls (100% = plants have died, 0% = like control plants). The essentials:
as §2

Assay [7] concerns VIOTR. Briefly: Post-emergence herbicidal action against VIOTR. Type of assay: in vivo, Viola tricolor. The essentials:
as §1

Assay [8] relates to AMARE. Briefly: Post-emergence herbicidal action against AMARE. Type of assay: in vivo, Amaranthus retroflexus. The conditions noted are these: 20 g/ha, visual assessment about 3 weeks after treatment, 100% = plants have died, 0% = like control plants. The essentials:
as §1

In assay [9] the test system is AMARE. Briefly: Pre-emergence herbicidal action against AMARE. The class given is in vivo, Amaranthus retroflexus. The gist of the method: as §2
The subject of assay [10] is VERPE. Briefly: Post-emergence herbicidal action against VERPE. The conditions noted are these: 20 g/ha. Type of assay: in vivo, Veronica persica. The protocol: (§3) Seeds of monocotyledonous and dicotyledonous weed and crop plants are laid out in sandy loam soil in wood-fiber pots, covered with soil and cultivated in a greenhouse under good growth conditions. 2 to 3 weeks after sowing, the test plants are treated at the one-leaf stage. The compounds of the invention, formulated in the form of wettable powders (WP) or as emulsion concentrates (EC), are then sprayed onto the green parts of the plants in the form of an aqueous suspension or emulsion at a water application rate equivalent to 600 to 800 l/ha, with addition of 0.2% wetting agent. After the test plants have been left to stand in the greenhouse under optimal growth conditions for about 3 weeks, the action of the preparations is assessed visually in comparison to untreated controls (herbicidal action in percent (%): 100% activity=the plants have died, 0% activity=like control plants). […] The tables below illustrate, in an illustrative manner, the post-emergence herbicidal action of the compounds of the invention, the herbicidal activity being stated in percent.

For assay [11], the system named is PHBPU. Briefly: Post-emergence herbicidal action against PHBPU. Type of assay: in vivo, Pharbitis purpurea. The gist of the method:
as §1

The subject of assay [12] is ALOMY. Briefly: Post-emergence herbicidal action against ALOMY. The class given is in vivo, Alopecurus myosuroides. Particulars: visual assessment about 3 weeks after treatment vs untreated controls. Here is the method:
as §3

Assay [13] has as its system AVEFA. Briefly: Pre-emergence herbicidal action against AVEFA. The class given is in vivo, Avena fatua. The conditions noted are these: 80 g/ha, pre-emergence. The gist of the method: as §2
The test system of assay [14] is ECHCG. Briefly: Pre-emergence herbicidal action against ECHCG. The class given is in vivo, Echinochloa crus-galli. The essentials:
as §2

Assay [15] concerns SETVI. Briefly: Post-emergence herbicidal action against SETVI. The class given is in vivo, Setaria viridis. The essentials:
as §1

Assay [16] deals with SETVI. Briefly: Pre-emergence herbicidal action against SETVI. The class given is in vivo, Setaria viridis. Particulars: dosage 80 g/ha. The gist of the method:
as §2

The subject of assay [17] is DIGSA. Briefly: Pre-emergence herbicidal action against DIGSA. The class given is in vivo, Digitaria sanguinalis. The gist of the method: as §2
Assay [18] relates to MATIN. Briefly: Post-emergence herbicidal action against MATIN. Type of assay: in vivo, Matricaria inodora. Particulars: dosage 20 g/ha. The gist of the method:
as §1

Assay [19] deals with VERPE. Briefly: Pre-emergence herbicidal action against VERPE. Type of assay: in vivo, Veronica persica. Particulars: dosage 80 g/ha. The essentials: as §2
The subject of assay [20] is DIGSA. Briefly: Post-emergence herbicidal action against DIGSA. Type of assay: in vivo, Digitaria sanguinalis. The essentials:
as §1

The mark [21] stands for this setting: 80 g/ha, scored visually after 3 weeks vs untreated controls (100% = plants have died, 0% = like control plants).
The mark [22] stands for this setting: 20 g/ha, scored visually after 3 weeks vs untreated controls, 100% = plants have died, 0% = like control plants.

On to `COCCNC(=O)c1c(C(F)F)ccc(C(=O)Nc2nnnn2C)c1C` [Example 1-347], for which the results for the “Post-emergence action against ABUTH in %” value in [1] (dosage 5 g/ha) and in assay [1] (dosage 20 g/ha) were 80% and 90%, respectively. Further, in assay [2] (setting [21]), the “Pre-emergence action against ALOMY (herbicidal activity)” value (from here on “Pre-emergence action against ALOMY”) is on record as 80%. Also, the “Post-emergence action against ECHCG in %” value in assay [3] turned out to be 90%. In addition, the “Pre-emergence action against VIOTR in %” value in assay [4] (dosage 80 g/ha) is 80%. The “Pre-emergence action against MATIN in %” value in assay [5] (dosage 80 g/ha) was 90%. Besides, the “Pre-emergence action against ABUTH (herbicidal activity)” value in assay [6] was 100%. Besides, the “Post-emergence action against VIOTR in %” value is 80% in [7] (5 g/ha) and 100% in assay [7] (20 g/ha). Also, the “Post-emergence action at 20 g/ha against AMARE in %” value in [8] is reported as 100%. The “Pre-emergence action against AMARE in %” value in [9] (setting [21]) was found to be 100%. In assay [10], the “Post-emergence action against VERPE in %” value was 90%. In addition, the “Post-emergence action against PHBPU in %” value in [11] (dosage 5 g/ha) and in assay [11] (dosage 20 g/ha) was 90% each time. The “Post-emergence action against ALOMY in %” value in assay [12] (dosage 20 g/ha) was 80%.
In general, pest or weed control refers to how far the test organism was held down. A high value points to a strong effect. As for `CNC(=O)c1c(Br)ccc(C(=O)Nc2nnnn2C)c1Br` [Example 1-342], the pest or weed control at 5 g/ha in [1] (Abutilon theophrasti, 504 h, dosage 5 g/ha) came to 90%; in [11] (Ipomoea purpurea, 504 h, dosage 5 g/ha) it was 80%; in assay [12] (Alopecurus myosuroides, 504 h, dosage 5 g/ha) it was 90%; in assay [15] (Setaria viridis, 504 h, dosage 5 g/ha), 90%. The pest or weed control at 20 g/ha came to 90% in [1] (Abutilon theophrasti, 504 h, dosage 20 g/ha); 90% in assay [2] (Alopecurus myosuroides, 504 h, 20 g/ha, scored visually after 3 weeks, 100% = plants have died, 0% = like control plants); 80% in [3] (Echinochloa crus-galli, 504 h); 80% in [5] (Tripleurospermum inodorum, 504 h, dosage 20 g/ha); 80% in [7] (Viola tricolor, 504 h, 20 g/ha); 100% in assay [8] (Amaranthus retroflexus, 504 h). Besides, the pest or weed control at 20 g/ha in assay [9] (Amaranthus retroflexus, 504 h, 20 g/ha, scored visually after 3 weeks vs untreated controls, 100% = plants have died, 0% = like control plants) came to 100%; in assay [10] (Veronica persica, 504 h), 80%; in assay [11] (Ipomoea purpurea, 504 h, dosage 20 g/ha), 90%; in assay [12] (Alopecurus myosuroides, 504 h, dosage 20 g/ha), 100%; in assay [15] (Setaria viridis, 504 h, dosage 20 g/ha) it was 90%. Also, the pest or weed control at 80 g/ha stood at 100% in assay [2] (Alopecurus myosuroides, 504 h, 80 g/ha, scored visually after 3 weeks vs untreated controls (100% = plants have died, 0% = like control plants)); 100% in [5] (Tripleurospermum inodorum, 504 h, dosage 80 g/ha); 100% in assay [13] (Avena fatua, 504 h); 100% in assay [14] (Echinochloa crus-galli, 504 h, 80 g/ha); 100% in assay [9] (Amaranthus retroflexus, 504 h, 80 g/ha, scored visually after 3 weeks vs untreated controls, 100% = plants have died, 0% = like control plants).
With `Cc1nnc(NC(=O)c2ccc(C(F)(F)F)c(C(=O)NC(C)C3CC3)c2Cl)o1` (stereo not drawn) [Example 6-254], the “Post-emergence action against ABUTH in %” value in assay [1] (dosage 20 g/ha) came out at 80%. Also, the “Pre-emergence action against ALOMY” value in [2] (setting [21]) was found to be 90%. The “Pre-emergence action against SETVI in %” value in assay [16] was found to be 80%. Besides, the “Post-emergence action against ECHCG in %” value in assay [3] is 90%. For the same compound, the “Pre-emergence action against DIGSA in %” value in assay [17] (dosage 20 g/ha) came to 90%; in assay [17] (dosage 80 g/ha), 100%. In [18], the “Post-emergence action against MATIN in %” value came to 80%. The “Pre-emergence action against VERPE in %” value in assay [19] is listed as 100%. The “Pre-emergence action against VIOTR in %” value in [4] (dosage 80 g/ha) was 90%. The “Pre-emergence action against MATIN in %” value in assay [5] (dosage 20 g/ha) was 80%; in assay [5] (dosage 80 g/ha), 100%. In addition, the “Pre-emergence action against AVEFA in %” value in assay [13] was determined as 90%. For the same compound, the “Pre-emergence action against ABUTH (herbicidal activity)” value in assay [6] was 100%. Also, the “Pre-emergence action against ABUTH (herbicidal activity in percent)” value in [6] (dosage 20 g/ha, scored visually after 3 weeks vs untreated controls, 100% = plants have died, 0% = like control plants) is reported as 100%. In addition, the figures for the “Pre-emergence action against ECHCG in %” value in assay [14] (20 g/ha) and in assay [14] (80 g/ha) were 90% and 100%, respectively. For the same compound, the “Post-emergence action at 20 g/ha against AMARE in %” value in assay [8] turned out to be 100%. For the same compound, the “Pre-emergence action against AMARE in %” value in assay [9] (setting [22]) and in assay [9] (setting [21]) was 100% each time. Moreover, the “Post-emergence action against DIGSA in %” value in [20] (5 g/ha) is recorded as 80%. Moreover, the “Post-emergence action against DIGSA” value in assay [20] (20 g/ha) stood at 90%. In [10], the “Post-emergence action against VERPE in %” value is recorded as 80%. Also, the “Post-emergence action against PHBPU in %” value in assay [11] (dosage 20 g/ha) stood at 80%. The “Post-emergence action against SETVI in %” value in assay [15] (dosage 20 g/ha) is listed as 80%.
Consider `CCn1nnnc1NC(=O)c1ccc(OC)c(C(=O)NC)c1Cl` [Example 2-352], for which, in assay [1] (dosage 20 g/ha), the “Post-emergence action against ABUTH in %” value is 80%. The “Pre-emergence action against ALOMY” value in assay [2] (setting [21]) was 90%. For the same compound, the “Pre-emergence action against SETVI in %” value in assay [16] stood at 100%. Besides, the “Post-emergence action against ECHCG in %” value in [3] is given as 90%. Besides, in assay [18], the “Post-emergence action against MATIN in %” value was found to be 80%. Further, the “Pre-emergence action against VIOTR in %” value in assay [4] (dosage 20 g/ha) and in assay [4] (dosage 80 g/ha) was 80% throughout. Further, the “Pre-emergence action against MATIN in %” value in [5] (dosage 20 g/ha) and in assay [5] (dosage 80 g/ha) was 90% each time. Moreover, the “Pre-emergence action against AVEFA in %” value in [13] was determined as 80%. Besides, the “Pre-emergence action against ABUTH (herbicidal activity)” value in assay [6] is given as 100%. In addition, the “Post-emergence action against VIOTR in %” value in assay [7] (20 g/ha) was found to be 90%. Moreover, the “Pre-emergence action against ECHCG in %” value in assay [14] (80 g/ha) was determined as 80%. The “Post-emergence action at 20 g/ha against AMARE in %” value in assay [8] came out at 100%. Further, the “Pre-emergence action against AMARE in %” value in assay [9] (setting [22]) and in assay [9] (setting [21]) was 100% each time. In addition, in assay [10], the “Post-emergence action against VERPE in %” value turned out to be 90%. The “Post-emergence action against PHBPU in %” value in [11] (dosage 20 g/ha) amounted to 80%. Further, the “Post-emergence action against ALOMY in %” value in [12] (dosage 5 g/ha) was determined as 80%; in assay [12] (dosage 20 g/ha) it was 90%. The “Post-emergence action against SETVI in %” value in [15] (dosage 5 g/ha) and in assay [15] (dosage 20 g/ha) was 80% in each case.
